The text below walks through data of patent US8652505B2, “Coating for medical implants” (Southwest Research Institute, priority 2010, dated 2014).

In this test the test system is methicillin resistant Staphylococcus aureus (MRSA) bacteria (strain: ATCC#33591). Kind of test: Bacteria inhibition test on Mueller-Hinton agar (zone of inhibition / MIC). The class given is cell-based. On the procedure: Bacteria inhibition tests were performed on Agar according to the standard method by using methicillin resistant Staphylococcus aureus (MRSA) bacteria (strain: ATCC#33591) in order to determine if the released vancomycin was active and unaffected by the coating and polymerization procedures described herein. The bacteria suspensions were cultured onto separate Mueller-Hinton agar plates at a concentration of 1−2×10^8 CFU/mL (CFU=colony forming unites) and incubated at 37° C. Released vancomycin, free vancomycin, and a standard vancomycin disk (loaded with 30 μg of vancomycin) were compared. After 24 hrs, the zone of inhibition was measured. To measure the sensitivity or the minimum inhibition concentration (MIC), different concentrations of vancomycin were loaded onto cellulose discs (40, 20, 10, 5, 2.5, and 1.25 μg per disc, N=3) and the zone of inhibition was measured.

For `CN[C@H](CC(C)C)C(=O)N[C@H]1C(=O)N[C@@H](CC(N)=O)C(=O)N[C@H]2C(=O)N[C@H]3C(=O)N[C@H](C(=O)N[C@H](C(=O)O)c4cc(O)cc(O)c4-c4cc3ccc4O)[C@H](O)c3ccc(c(Cl)c3)Oc3cc2cc(c3O[C@@H]2O[C@H](CO)[C@@H](O)[C@H](O)[C@H]2O[C@H]2C[C@](C)(N)[C@H](O)[C@H](C)O2)Oc2ccc(cc2Cl)[C@H]1O` [released drug, vancomycin], the “activity of released drug in bacteria inhibition test” value (zone of inhibition after 24 hrs, 37° C., compared with free vancomycin and standard 30 μg disk) is “same activity as the free drug and standard drug”.
Molecule `CN[C@H](CC(C)C)C(=O)N[C@H]1C(=O)N[C@@H](CC(N)=O)C(=O)N[C@H]2C(=O)N[C@H]3C(=O)N[C@H](C(=O)N[C@H](C(=O)O)c4cc(O)cc(O)c4-c4cc3ccc4O)[C@H](O)c3ccc(c(Cl)c3)Oc3cc2cc(c3O[C@@H]2O[C@H](CO)[C@@H](O)[C@H](O)[C@H]2O[C@H]2C[C@](C)(N)[C@H](O)[C@H](C)O2)Oc2ccc(cc2Cl)[C@H]1O` [vancomycin] gave an MIC (vancomycin loaded on cellulose discs, against S. Aureus, FIG. 10) of 0.5 to 1 µg.
